Experimental data taken from US20250368648A1, “MULTI-CYCLIC IRAK AND FLT3 INHIBITING COMPOUNDS AND USES THEREOF” (CHILDREN'S HOSPITAL MEDICAL CENTER, priority 2022, published 2025).
Where two headings read alike, the source gives them in different places.

Columns and labels:
IRAK1 = target: T1, IRAK1 (Homo sapiens, UniProt P51617); test: RBC HotSpot Kinase Assay, IRAK1; format: biochemical; conditions: HotSpot functional assay, isolated kinase enzyme, 33P-ATP
T1 construct: purchased RBC (Reaction Biology) HotSpot assay
T1 sequence (P51617 whole entry): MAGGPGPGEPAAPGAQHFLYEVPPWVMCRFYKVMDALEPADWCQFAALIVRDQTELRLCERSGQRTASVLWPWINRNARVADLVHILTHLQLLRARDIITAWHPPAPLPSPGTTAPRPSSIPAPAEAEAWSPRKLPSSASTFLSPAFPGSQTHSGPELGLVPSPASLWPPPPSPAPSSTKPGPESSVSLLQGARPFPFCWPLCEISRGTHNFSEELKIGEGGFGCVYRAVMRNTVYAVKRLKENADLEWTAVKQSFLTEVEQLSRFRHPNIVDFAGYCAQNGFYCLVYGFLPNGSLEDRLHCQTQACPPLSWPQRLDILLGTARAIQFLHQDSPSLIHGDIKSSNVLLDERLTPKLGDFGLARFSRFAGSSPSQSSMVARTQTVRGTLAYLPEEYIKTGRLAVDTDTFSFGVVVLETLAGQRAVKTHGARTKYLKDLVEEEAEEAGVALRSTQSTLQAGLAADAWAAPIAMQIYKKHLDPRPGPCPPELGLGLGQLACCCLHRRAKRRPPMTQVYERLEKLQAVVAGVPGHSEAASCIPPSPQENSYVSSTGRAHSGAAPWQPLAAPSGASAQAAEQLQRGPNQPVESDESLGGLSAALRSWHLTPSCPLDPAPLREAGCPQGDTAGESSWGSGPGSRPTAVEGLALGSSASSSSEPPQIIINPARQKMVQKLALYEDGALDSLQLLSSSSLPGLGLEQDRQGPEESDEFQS
In short: (§1)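 Isolated kinases, possibly truncated or lacking regulatory receptor regions, were preincubated with compound for 20 min at room temp in 20 mM Hepes pH 7.5, 10 mM MgCl2, 1 mM EGTA, 2 mM DTT, 1% DMSO. Reactions were started with ^33P-ATP and run 2 h at room temperature; activity was read by P81 filter binding.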

NF-κB = test: NF-kB assay in THP-1-Blue NF-κB cells (SEAP reporter); format: cell-based
Protocol: THP-1-Blue NF-κB cells (InvivoGen) carrying a stable integrated NF-κB-inducible secreted embryonic alkaline phosphatase (SEAP) reporter construct were plated at a concentration of 1×10^5 cells per well. The cells were stimulated with Pam3CSK4 (1 ng/mL) or hIL1B (Ing/mL). After 10-20 minutes, the cells were then treated with vehicle (DMSO) or serial dilutions of the test compounds (10 doses tested for each test compound, with a 1:10 dilution series starting at 1 μM or 3 μM) with a final volume of 200 μL for 24 hours at 37° C. After 24 hours, the cells were centrifuged and 20 IL supernatant was incubated with 180 μL QUANTI-Blue reagent at 37° C. for 30-60 minutes. The levels of NF-κB-induced was measured in a microplate reader at 620 nm.

IRAK4 = target: T2, IRAK4 (Homo sapiens, UniProt Q9NWZ3); test: RBC HotSpot Kinase Assay, IRAK4; format: biochemical; parameters: purchased RBC (Reaction Biology) HotSpot assay; conditions: HotSpot functional assay, isolated kinase enzyme, 33P-ATP
T2 sequence (Q9NWZ3 1-460): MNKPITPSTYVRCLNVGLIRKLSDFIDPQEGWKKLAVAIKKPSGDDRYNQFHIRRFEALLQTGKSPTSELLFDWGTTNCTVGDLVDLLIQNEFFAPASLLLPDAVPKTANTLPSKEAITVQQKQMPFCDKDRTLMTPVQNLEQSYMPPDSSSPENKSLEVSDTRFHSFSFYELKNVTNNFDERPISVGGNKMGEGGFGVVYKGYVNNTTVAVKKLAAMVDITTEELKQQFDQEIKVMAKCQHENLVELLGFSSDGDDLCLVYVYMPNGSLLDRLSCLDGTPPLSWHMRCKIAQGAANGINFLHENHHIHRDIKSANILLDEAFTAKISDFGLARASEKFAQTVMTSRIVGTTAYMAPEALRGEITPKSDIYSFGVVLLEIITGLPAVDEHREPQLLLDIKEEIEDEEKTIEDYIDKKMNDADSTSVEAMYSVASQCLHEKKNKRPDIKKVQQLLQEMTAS
In short: as §1

FLT3 = target: T3, FLT3 (Homo sapiens, UniProt P36888); test: RBC HotSpot Kinase Assay, FLT3; format: biochemical; parameters: purchased RBC (Reaction Biology) HotSpot assay; conditions: HotSpot functional assay, isolated kinase enzyme, 33P-ATP
T3 sequence (P36888 27-993): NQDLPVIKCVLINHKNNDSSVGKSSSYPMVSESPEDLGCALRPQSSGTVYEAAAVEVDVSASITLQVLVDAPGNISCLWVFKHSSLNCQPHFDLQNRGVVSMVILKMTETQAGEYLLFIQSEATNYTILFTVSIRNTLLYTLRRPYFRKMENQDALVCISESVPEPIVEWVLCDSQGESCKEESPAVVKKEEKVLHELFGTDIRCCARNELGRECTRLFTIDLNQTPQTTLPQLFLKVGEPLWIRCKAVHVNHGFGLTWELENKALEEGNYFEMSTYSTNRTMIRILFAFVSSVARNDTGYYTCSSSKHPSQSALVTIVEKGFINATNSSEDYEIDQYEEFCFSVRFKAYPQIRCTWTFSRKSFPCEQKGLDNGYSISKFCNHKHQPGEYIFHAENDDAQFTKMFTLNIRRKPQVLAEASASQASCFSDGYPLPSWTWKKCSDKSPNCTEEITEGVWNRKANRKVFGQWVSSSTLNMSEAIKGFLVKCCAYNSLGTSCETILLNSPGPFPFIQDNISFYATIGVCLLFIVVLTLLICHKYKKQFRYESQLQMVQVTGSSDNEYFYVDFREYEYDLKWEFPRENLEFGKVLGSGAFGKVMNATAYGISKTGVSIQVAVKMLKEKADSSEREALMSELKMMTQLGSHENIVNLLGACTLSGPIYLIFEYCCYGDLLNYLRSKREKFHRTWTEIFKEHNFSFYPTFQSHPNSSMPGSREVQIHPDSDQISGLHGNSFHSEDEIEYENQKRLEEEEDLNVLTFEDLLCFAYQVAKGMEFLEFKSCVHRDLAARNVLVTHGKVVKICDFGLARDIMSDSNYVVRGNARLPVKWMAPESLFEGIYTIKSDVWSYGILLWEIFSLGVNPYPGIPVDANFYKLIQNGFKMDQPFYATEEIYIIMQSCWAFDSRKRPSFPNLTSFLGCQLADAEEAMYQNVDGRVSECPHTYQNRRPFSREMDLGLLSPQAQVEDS
In short: as §1

MOLM14 D835Y cells = test: MOLM14 D835Y cell viability assay (Cell Titer Glo); format: cell-based; conditions: Homo sapiens, MOLM-14, 48 h
Protocol: The cell line has activated FLT3 receptors which carry additional resistance mutations in the kinase domain (D835Y).
MOLM14 D835Y cells were grown in RPMI-1640 media supplemented with 20% fetal bovine serum (FBS). […] After cell addition, 23 nL of test compound were transferred into individual wells (22 doses tested for each test compound, with a 1:2 dilution series starting at 10 μM) via a 1536 pin-tool. Bortezomib (final concentration 2.3 μM) was used as a positive control for cell cytotoxicity.

[1] = THP-1-Blue NF-κB cells stimulated with Pam3CSK4, 24 hours, read-out: NF-κB Pam3SCK4 IC50
[2] = THP-1-Blue NF-κB cells stimulated with hIL1B, 24 hours, read-out: NF-κB IL1B IC50

IC50 (NF-κB; [1])	IC50 (NF-κB; [2])	SMILES	IC50 (IRAK1)	IC50 (IRAK4)	IC50 (FLT3)	IC50 (MOLM14 D835Y cells)
2.56 µM	2.56 µM	COc1cc2ncc(-c3nc(N[C@@H]4CCCNC4)c(F)cc3F)n2nc1C1CC(C)(C)C1 [Compound 7a, (R)-6-(6-(3,3-dimethylcyclobutyl)-7-methoxyimidazo[1,2-b]pyridazin-3-yl)-3,5-difluoro-N-(piperidin-3-yl)pyridin-2-amine]	0.022 µM	0.013 µM	< 0.0005 µM	–
0.203 µM	0.481 µM	COc1cc2ncc(-c3ccc(C#N)c(N[C@@H]4CCCNC4)n3)n2nc1C1CC1 [Compound 28a, (R)-6-(6-cyclopropyl-7-methoxyimidazo[1,2-b]pyridazin-3-yl)-2-(piperidin-3-ylamino)nicotinonitrile]	0.836 µM	0.013 µM	< 0.0005 µM	–
0.066 µM	0.07 µM	COc1cc2ncc(-c3ccc(C#N)c(N[C@H]4CNCC[C@@H]4F)n3)n2nc1C1CC1 [Compound 29a, 6-(6-cyclopropyl-7-methoxyimidazo[1,2-b]pyridazin-3-yl)-2-(((3S,4S)-4-fluoropiperidin-3-yl)amino)nicotinonitrile]	0.01 µM	< 0.0005 µM	< 0.0005 µM	–
–	–	COc1cc2ncc(-c3nc(N[C@H]4CNCC[C@@H]4F)ccc3C)n2nc1C1CC1 [Compound 39a, 6-(6-cyclopropyl-7-methoxyimidazo[1,2-b]pyridazin-3-yl)-N-((3S,4S)-4-fluoropiperidin-3-yl)-5-methylpyridin-2-amine]	3.36 µM	0.045 µM	< 0.0005 µM	0.129 µM
–	–	COc1cc2ncc(-c3nc(N[C@@H]4CCCNC4)ccc3C)n2nc1C1CC1 [Compound 40a, (R)-6-(6-cyclopropyl-7-methoxyimidazo[1,2-b]pyridazin-3-yl)-5-methyl-N-(piperidin-3-yl)pyridin-2-amine]	> 10 µM	0.018 µM	< 0.0005 µM	0.129 µM
–	–	COc1cc2ncc(-c3ccc(C)c(N[C@@H]4CCCNC4)n3)n2nc1C1CC1 [Compound 41a, (R)-6-(6-cyclopropyl-7-methoxyimidazo[1,2-b]pyridazin-3-yl)-3-methyl-N-(piperidin-3-yl)pyridin-2-amine]	> 10 µM	> 10 µM	0.105 µM	1.62 µM
–	–	COc1cc2ncc(-c3ccc(C)c(N[C@H]4CNC[C@@H]4F)n3)n2nc1C1CC1 [Compound 42a, 6-(6-cyclopropyl-7-methoxyimidazo[1,2-b]pyridazin-3-yl)-N-((3S,4S)-4-fluoropyrrolidin-3-yl)-3-methylpyridin-2-amine]	> 10 µM	8.43 µM	0.135 µM	7.25 µM
–	–	COc1cc2ncc(-c3nc(N[C@H]4CNC[C@@H]4F)ccc3C)n2nc1C1CC1 [Compound 43a, 6-(6-cyclopropyl-7-methoxyimidazo[1,2-b]pyridazin-3-yl)-N-((3S,4S)-4-fluoropyrrolidin-3-yl)-5-methylpyridin-2-amine]	8.27 µM	0.341 µM	0.0007 µM	0.646 µM
–	–	COc1cc2ncc(-c3nc(N[C@@H]4CCCNC4)ccc3F)n2nc1C1CC1 [Compound 44a, (R)-6-(6-cyclopropyl-7-methoxyimidazo[1,2-b]pyridazin-3-yl)-5-fluoro-N-(piperidin-3-yl)pyridin-2-amine]	0.062 µM	0.002 µM	< 0.0005 µM	0.003 µM
–	–	COc1cc2ncc(-c3ccc(F)c(N[C@H]4CNCC[C@@H]4F)n3)n2nc1C1CC1 [Compound 48a, 6-(6-cyclopropyl-7-methoxyimidazo[1,2-b]pyridazin-3-yl)-3-fluoro-N-((3S,4S)-4-fluoropiperidin-3-yl)pyridin-2-amine]	0.169 µM	0.001 µM	< 0.0005 µM	0.026 µM
–	–	COc1cc2ncc(-c3ccc(F)c(N[C@@H]4CCCNC4)n3)n2nc1C1CC1 [Compound 49a, (R)-6-(6-cyclopropyl-7-methoxyimidazo[1,2-b]pyridazin-3-yl)-3-fluoro-N-(piperidin-3-yl)pyridin-2-amine]	0.449 µM	0.003 µM	< 0.0005 µM	0.051 µM
0.312 µM	0.41 µM	COc1cc2ncc(-c3nc(N[C@@H]4CCCNC4)c(F)cc3F)n2nc1C12CC(C1)C2 [Compound 65a, (R)-6-(6-(bicyclo[1.1.1]pentan-1-yl)-7-methoxyimidazo[1,2-b]pyridazin-3-yl)-3,5-difluoro-N-(piperidin-3-yl)pyridin-2-amine]	0.018 µM	0.009 µM	< 0.0005 µM	–
0.08 µM	0.097 µM	COc1cc2ncc(-c3nc(N[C@H]4CNC[C@@H]4F)c(F)cc3F)n2nc1C1COC1 [Compound 71a, 3,5-difluoro-N-((3S,4S)-4-fluoropyrrolidin-3-yl)-6-(7-methoxy-6-(oxetan-3-yl)imidazo[1,2-b]pyridazin-3-yl)pyridin-2-amine]	0.05 µM	0.001 µM	< 0.0005 µM	–
–	–	Fc1cc(F)c(-c2cnc3cc(OCC(F)F)cnn23)nc1N[C@H]1CNC[C@@H]1F [Compound 82a, 6-(7-(2,2-difluoroethoxy)imidazo[1,2-b]pyridazin-3-yl)-3,5-difluoro-N-((3 S,4S)-4-fluoropyrrolidin-3-yl)pyridin-2-amine]	0.441 µM	0.009 µM	< 0.0005 µM	0.204 µM
–	–	Fc1cc(F)c(-c2cnc3cc(OCC(F)F)cnn23)nc1N[C@@H]1CCCNC1 [Compound 83a, (R)-6-(7-(2,2-difluoroethoxy)imidazo[1,2-b]pyridazin-3-yl)-3,5-difluoro-N-(piperidin-3-yl)pyridin-2-amine]	1.75 µM	0.053 µM	0.0005 µM	0.091 µM
–	–	Fc1cc(F)c(-c2cnc3cc(OCC(F)F)cnn23)nc1N[C@H]1CNCC[C@@H]1F [Compound 84a, 6-(7-(2,2-difluoroethoxy)imidazo[1,2-b]pyridazin-3-yl)-3,5-difluoro-N-((3S,4S)-4-fluoropiperidin-3-yl)pyridin-2-amine]	0.849 µM	0.004 µM	< 0.0005 µM	0.046 µM
